Assay results taken from patent publication US9695155B2, “Herbicidal substituted pyrimidinyloxy benzene compounds” (E. I. DU PONT DE NEMOURS AND COMPANY, priority 2013, dated 2017).

Key:
[1] = system: barnyardgrass; assay: Test A postemergence; type: in vivo, Echinochloa crus-galli; details: for Barnyardgrass plant response rating: 125 g ai/ha
Summary of the method: (§1)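 Compounds in non-phytotoxic solvent with surfactant applied as soil spray preemergence, or postemergence to plants 2-10 cm at one- to two-leaf stage, in loam/sand. After approximately 10 days in greenhouse, injury rated visually versus untreated controls, 0 (no effect) to 100 (complete control).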

[2] = system: galium; assay: Test A postemergence; type: in vivo, Galium aparine; details: for Galium plant response rating: 125 g ai/ha
Summary of the method: as §1

[3] = system: pigweed; assay: Test A postemergence; type: in vivo, Amaranthus retroflexus; details: for Pigweed plant response rating: 125 g ai/ha
Summary of the method: as §1

[4] = system: rice; assay: Test B flooded paddy test; type: in vivo, Oryza sativa; details: Flood, 250 g ai/ha; 0 to 100 scale where 0 is no effect and 100 is complete control
Summary of the method: (§2)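 Greenhouse flooded-pot test: compounds dosed into 3 cm standing water over 2-leaf plants, flood held constant. Rated visually after 13–15 days on 0–100 (complete control = 100); a dash marks no test result.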

[5] = system: kochia; assay: Test A preemergence; type: in vivo, Kochia scoparia; details: for Plant response rating, Kochia: 125 g ai/ha
Summary of the method: as §1

[6] = system: wheat; assay: Test A postemergence; type: in vivo, Triticum aestivum; details: for Wheat plant response rating: 125 g ai/ha
Summary of the method: as §1

[7] = system: sedge, umbrella; assay: Test B flooded paddy test; type: in vivo, Cyperus difformis; details: Flood, 250 g ai/ha; 0 to 100 scale where 0 is no effect and 100 is complete control
Summary of the method: as §2

[8] = system: Italian ryegrass; assay: Test A postemergence; type: in vivo, Lolium multiflorum; details: for Ryegrass, Italian plant response rating: 125 g ai/ha
Summary of the method: as §1

[9] = system: pigweed; assay: Test A preemergence; type: in vivo, Amaranthus retroflexus; details: for Plant response rating, Pigweed: 125 g ai/ha
Summary of the method: as §1

[10] = system: barnyardgrass; assay: Test B flooded paddy test; type: in vivo, Echinochloa crus-galli; details: Flood, 250 g ai/ha; 0 to 100 scale where 0 is no effect and 100 is complete control
Summary of the method: as §2

[11] = system: Heteranthera limosa; assay: Test B flooded paddy test; type: in vivo; details: Flood, 250 g ai/ha; 0 to 100 scale where 0 is no effect and 100 is complete control
Summary of the method: as §2

[12] = system: barnyardgrass; assay: Test A preemergence; type: in vivo, Echinochloa crus-galli; details: for Plant response rating, Barnyardgrass: 125 g ai/ha
Summary of the method: as §1

[13] = system: Italian ryegrass; assay: Test A preemergence; type: in vivo, Lolium multiflorum; details: for Plant response rating, Ryegrass, Italian: 125 g ai/ha
Summary of the method: as §1

[14] = system: giant foxtail; assay: Test A postemergence; type: in vivo, Setaria faberii; details: for Foxtail, Giant plant response rating: 125 g ai/ha
Summary of the method: as §1

[15] = system: ragweed; assay: Test A postemergence; type: in vivo, Ambrosia elatior; details: for Ragweed plant response rating: 125 g ai/ha
Summary of the method: as §1

[16] = system: blackgrass; assay: Test A postemergence; type: in vivo, Alopecurus myosuroides; details: for Blackgrass plant response rating: 125 g ai/ha
Summary of the method: as §1

[17] = system: giant foxtail; assay: Test A preemergence; type: in vivo, Setaria faberii; details: for Plant response rating, Foxtail, Giant: 125 g ai/ha
Summary of the method: as §1

[18] = system: ragweed; assay: Test A preemergence; type: in vivo, Ambrosia elatior; details: for Plant response rating, Ragweed: 125 g ai/ha
Summary of the method: as §1

[19] = system: kochia; assay: Test A postemergence; type: in vivo, Kochia scoparia; details: for Kochia plant response rating: 125 g ai/ha
Summary of the method: as §1

[20] = system: corn; assay: Test A postemergence; type: in vivo, Zea mays; details: for Corn plant response rating: 125 g ai/ha
Summary of the method: as §1

[21] = 31 g ai/ha, 0 to 100 scale, 0 no effect, 100 complete control
[22] = 0 to 100 scale where 0 is no effect and 100 is complete control
[23] = 500 g ai/ha, 0 to 100 scale where 0 is no effect and 100 is complete control

CCCOc1cnn(-c2c(F)cccc2Oc2ncc(Cl)cn2)c1 [Compound 127]
Plant response rating, Barnyardgrass [1, 21]: 0
Barnyardgrass plant response rating [1, 22]: 10
Plant response rating, Galium [2, 21]: 10
Galium plant response rating [2, 22]: 20
Plant response rating, Pigweed [3, 21]: 20
Pigweed plant response rating [3, 22]: 30
Plant response rating, Rice [4]: 0
Kochia plant response rating (0 to 100 scale) ([5]; 31 g ai/ha): 0
Plant response rating, Kochia [5, 22]: 0
Plant response rating, Wheat [6, 21]: 0
Wheat plant response rating [6, 22]: 0
Plant response rating, Sedge, Umbrella [7]: 0
Plant response rating, Ryegrass, Italian [8, 21]: 0
Ryegrass, Italian plant response rating [8, 22]: 0
Pigweed plant response rating (0 to 100 scale) ([9]; 31 g ai/ha): 0
Plant response rating, Pigweed [9, 22]: 10
Plant response rating, Barnyardgrass [10]: 0
Plant response rating, Ducksalad [11]: 60
Barnyardgrass plant response rating (0 to 100 scale) ([12]; 31 g ai/ha): 0
Plant response rating, Barnyardgrass [12, 22]: 40
Ryegrass, Italian plant response rating (0 to 100 scale) ([13]; 31 g ai/ha): 0
Plant response rating, Ryegrass, Italian [13, 22]: 0
Plant response rating, Foxtail, Giant [14, 21]: 0
Foxtail, Giant plant response rating [14, 22]: 20
Plant response rating, Ragweed [15, 21]: 0
Ragweed plant response rating [15, 22]: 10
Plant response rating, Blackgrass [16, 21]: 0
Blackgrass plant response rating [16, 22]: 10
Foxtail, Giant plant response rating (0 to 100 scale) ([17]; 31 g ai/ha): 10
Plant response rating, Foxtail, Giant [17, 22]: 60
Ragweed plant response rating (0 to 100 scale) ([18]; 31 g ai/ha): 0
Plant response rating, Ragweed [18, 22]: 0
Plant response rating, Kochia [19, 21]: 0
Kochia plant response rating [19, 22]: 30
Plant response rating, Corn [20, 21]: 0
Corn plant response rating [20, 22]: 10

CC(C)c1cnc(Oc2cccc(C#N)c2-n2cc(Br)cn2)nc1 [Compound 130]
Barnyardgrass plant response rating [1, 22]: 0
Plant response rating, Barnyardgrass [1, 23]: 0
Galium plant response rating [2, 22]: 0
Plant response rating, Galium [2, 23]: 0
Pigweed plant response rating [3, 22]: 0
Plant response rating, Pigweed [3, 23]: 0
Plant response rating, Rice [4]: 0
Plant response rating, Kochia [5, 22]: 0
Kochia plant response rating [5, 23]: 0
Wheat plant response rating [6, 22]: 0
Plant response rating, Wheat [6, 23]: 0
Plant response rating, Sedge, Umbrella [7]: 0
Ryegrass, Italian plant response rating [8, 22]: 0
Plant response rating, Ryegrass, Italian [8, 23]: 0
Plant response rating, Pigweed [9, 22]: 0
Pigweed plant response rating [9, 23]: 0
Plant response rating, Barnyardgrass [10]: 0
Plant response rating, Ducksalad [11]: 0
Plant response rating, Barnyardgrass [12, 22]: 0
Barnyardgrass plant response rating [12, 23]: 0
Plant response rating, Ryegrass, Italian [13, 22]: 0
Ryegrass, Italian plant response rating [13, 23]: 0
Foxtail, Giant plant response rating [14, 22]: 0
Plant response rating, Foxtail, Giant [14, 23]: 0
Ragweed plant response rating [15, 22]: 0
Plant response rating, Ragweed [15, 23]: 0
Blackgrass plant response rating [16, 22]: 0
Plant response rating, Blackgrass [16, 23]: 0
Plant response rating, Foxtail, Giant [17, 22]: 0
Foxtail, Giant plant response rating [17, 23]: 0
Plant response rating, Ragweed [18, 22]: 0
Ragweed plant response rating [18, 23]: 0
Kochia plant response rating [19, 22]: 0
Plant response rating, Kochia [19, 23]: 0
Corn plant response rating [20, 22]: 0
Plant response rating, Corn [20, 23]: 0
